Biological target: T1, human mGlu4 receptor (Homo sapiens, UniProt Q14833)
T1 construct: expressed in transfected cells; host or cells: HEK-293 (monoclonal, stably transfected)
Test: Ca2+ mobilization in vitro assay on recombinant human mGlu4 expressed in HEK293 cells (mGlu4 PAM)
Type: cell-based
Conditions: for Emax: HEK293, maximal response in % of the maximal stimulatory effect obtained with saturating concentrations of L-AP4, read-out: Eff. (%); for EC50: HEK-293 cells, Ca2+ mobilization, L-AP4 added at EC20
Protocol: Determination of EC50 Values Using a Ca2+ mobilization in vitro Assay on Recombinant Human mGlu4 Expressed in HEK293 cells:
A monoclonal HEK-293 cell line stably transfected with a cDNA encoding for the human mGlu4 receptor was generated; for the work with mGlu4 Positive Allosteric Modulators (PAMs), a cell line with low receptor expression levels and low constitutive receptor activity was selected to allow the differentiation of agonistic versus PAM activity. Cells were cultured according to standard protocols (Freshney, 2000) in Dulbecco's Modified Eagle Medium with high glucose supplemented with 1 mM glutamine, 10% (vol/vol) heat-inactivated bovine calf serum, Penicillin/Streptomycin, 50 μg/ml hygromycin and 15 μg/ml blasticidin (all cell culture reagents and antibiotics from Invitrogen, Basel, Switzerland).
About 24 hrs before an experiment, 5×10^4 cells/well were seeded in poly-D-lysine coated, black/clear-bottomed 96-well plates. The cells were loaded with 2.5 μM Fluo-4AM in loading buffer (1×HBSS, 20 mM HEPES) for 1 hr at 37° C. and washed five times with loading buffer. The cells were transferred into a Functional Drug Screening System 7000 (Hamamatsu, Paris, France), and 11 half logarithmic serial dilutions of test compound at 37° C. were added and the cells were incubated for 10-30 min. with on-line recording of fluorescence. Following this pre-incubation step, the agonist (2S)-2-amino-4-phosphonobutanoic acid (L-AP4) was added to the cells at a concentration corresponding to EC20 with on-line recording of fluorescence; in order to account for day-to-day variations in the responsiveness of cells, the EC20 of L-AP4 was determined immediately ahead of each experiment by recording of a full dose-response curve of L-AP4.
Responses were measured as peak increase in fluorescence minus basal (i.e. fluorescence without addition of L-AP4), normalized to the maximal stimulatory effect obtained with saturating concentrations of L-AP4. Graphs were plotted with the % maximal stimulatory using XLfit, a curve fitting program that iteratively plots the data using Levenburg Marquardt algorithm. The single site competition analysis equation used was y=A+((B−A)/(1+((x/C)D))), where y is the % maximal stimulatory effect, A is the minimum y, B is the maximum y, C is the EC50, x is the log 10 of the concentration of the competing compound and D is the slope of the curve (the Hill Coefficient). From these curves the EC50 (drug concentration at which 50% of the maximal receptor activation was achieved), the Hill coefficient as well as the maximal response in % of the maximal stimulatory effect obtained with saturating concentrations of L-AP4 were calculated (see FIG. 1).
A depression of the signal observed after addition of the EC20 concentration of L-AP4was indicative of an inhibitory activity of the test compound.

T1 sequence (Q14833 33-912): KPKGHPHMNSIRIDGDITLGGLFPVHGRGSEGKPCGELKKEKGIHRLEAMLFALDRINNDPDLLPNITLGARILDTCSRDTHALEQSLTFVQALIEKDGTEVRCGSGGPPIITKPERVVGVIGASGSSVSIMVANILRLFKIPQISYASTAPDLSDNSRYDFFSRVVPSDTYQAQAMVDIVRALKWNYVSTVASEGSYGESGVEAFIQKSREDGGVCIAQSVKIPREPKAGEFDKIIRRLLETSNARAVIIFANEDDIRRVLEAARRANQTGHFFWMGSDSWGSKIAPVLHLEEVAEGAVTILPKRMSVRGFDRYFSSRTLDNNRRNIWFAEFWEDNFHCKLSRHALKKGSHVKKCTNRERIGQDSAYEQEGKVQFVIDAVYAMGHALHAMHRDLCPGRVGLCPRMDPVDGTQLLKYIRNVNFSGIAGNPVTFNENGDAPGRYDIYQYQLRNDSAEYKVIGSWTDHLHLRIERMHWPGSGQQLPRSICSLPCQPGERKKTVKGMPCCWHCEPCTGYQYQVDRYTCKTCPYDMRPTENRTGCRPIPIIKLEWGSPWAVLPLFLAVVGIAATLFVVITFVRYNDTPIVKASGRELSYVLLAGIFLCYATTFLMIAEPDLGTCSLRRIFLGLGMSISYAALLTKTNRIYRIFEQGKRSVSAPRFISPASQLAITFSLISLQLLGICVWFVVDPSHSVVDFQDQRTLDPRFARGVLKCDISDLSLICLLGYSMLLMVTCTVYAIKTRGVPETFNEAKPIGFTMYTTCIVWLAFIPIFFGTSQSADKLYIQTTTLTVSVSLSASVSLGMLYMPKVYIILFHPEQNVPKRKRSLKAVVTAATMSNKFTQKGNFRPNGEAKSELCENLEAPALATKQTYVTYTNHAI

**Q.** Which results are given for CC1C(=O)N(c2c(F)cc(C#Cc3ccccc3)cc2F)C(=O)N(C)C1(C)C (racemic) [Example 7, (5RS)-3-[2,6-Difluoro-4-(2-phenylethynyl)phenyl]-1,5,6,6-tetramethyl-hexahydropyrimidine-2,4-dione]?
**A.** Emax: 148%; EC50: 157 nM

**Q.** Which Emax does the source give for O=C1CC2COCCN2C(=O)N1c1c(F)cc(C#Cc2ccccc2)cc1F (racemic) [Example 8, (9aRS)-7-[2,6-Difluoro-4-(2-phenylethynyl)phenyl]-3,4,9,9a-tetrahydro-1H-pyrimido[6,1-c][1,4]oxazine-6,8-dione] here?
**A.** 107%

**Q.** What about the EC50 of the same compound?
**A.** 144 nM

**Q.** How did the Emax turn out when CN1C(=O)N(c2c(F)cc(C#Cc3ccccc3)cc2F)C(=O)[C@H]2CCC[C@H]21 (racemic) [Example 11, (4aRS,7aSR)-3-[2,6-Difluoro-4-(2-phenylethynyl)phenyl]-1-methyl-5,6,7,7a-tetrahydro-4aH-cyclopenta[d]pyrimidine-2,4-dione] was run?
**A.** 131%

**Q.** What about the EC50 of the same compound?
**A.** 163 nM

**Q.** What does the source list for CN1C(=O)N(c2c(F)cc(C#Cc3ccccc3)cc2F)C(=O)CC12CCOC2 (racemic) [Example 12, (5RS)-8-[2,6-Difluoro-4-(2-phenylethynyl)phenyl]-6-methyl-2-oxa-6,8-diazaspiro[4.5]decane-7,9-dione]?
**A.** Emax: 115%; EC50: 260 nM

**Q.** Which results are given for CN1C(=O)N(c2c(F)cc(C#Cc3ccccc3)cc2F)C(=O)CC1(C)c1ccccc1 (racemic) [Example 13, (6RS)-3-[2,6-Difluoro-4-(2-phenylethynyl)phenyl]-1,6-dimethyl-6-phenyl-hexahydropyrimidine-2,4-dione]?
**A.** Emax: 119%; EC50: 28 nM

**Q.** CN1C(=O)N(c2c(F)cc(C#Cc3cccnc3)cc2F)C(=O)CC1(C)c1ccccc1 (racemic) [Example 15, (6RS)-3-[2,6-Difluoro-4-[2-(3-pyridyl)ethynyl]phenyl]-1,6-dimethyl-6-phenyl-hexahydropyrimidine-2,4-dione] was tested. Which Emax did it give?
**A.** 134%

**Q.** And the EC50?
**A.** 100 nM

**Q.** Which results are given for CCN1C(=O)N(c2c(F)cc(C#Cc3cccnc3)cc2F)C(=O)CC1(C)c1ccccc1 (racemic) [Example 16, (6RS)-3-[2,6-Difluoro-4-[2-(3-pyridyl)ethynyl]phenyl]-1-ethyl-6-methyl-6-phenyl-hexahydropyrimidine-2,4-dione]?
**A.** Emax: 136%; EC50: 105 nM

**Q.** Which results are given for CN1C(=O)N(c2c(F)cc(C#Cc3ccccc3)cc2F)C(=O)CC12CCCOC2 (racemic) [Example 17, (6RS)-3-[2,6-Difluoro-4-(2-phenylethynyl)phenyl]-1-methyl-8-oxa-1,3-diazaspiro[5.5]undecane-2,4-dione]?
**A.** Emax: 129%; EC50: 183 nM

**Q.** How did the Emax turn out when CCC1(C)CC(=O)N(c2c(F)cc(C#Cc3ccccc3)cc2F)C(=O)N1C (racemic) [Example 18, (6RS)-3-[2,6-Difluoro-4-(2-phenylethynyl)phenyl]-6-ethyl-1,6-dimethyl-hexahydropyrimidine-2,4-dione] was run?
**A.** 241%

**Q.** And the EC50?
**A.** 49 nM

**Q.** What does the source list for CN1C(=O)N(c2ccc(C#Cc3ccccc3)cn2)C(=O)CC1(C)c1ccccc1 (racemic) [Example 23, (6RS)-1,6-Dimethyl-6-phenyl-3-[5-(2-phenylethynyl)-2-pyridyl]hexahydropyrimidine-2,4-dione]?
**A.** Emax: 126%; EC50: 947 nM

**Q.** Which Emax does the source give for CN1C(=O)N(c2ccc(C#Cc3ccccc3)cc2)C(=O)CC1(C)c1ccccc1 (racemic) [Example 24, (6RS)-1,6-Dimethyl-6-phenyl-3-[4-(2-phenylethynyl)phenyl]hexahydropyrimidine-2,4-dione] here?
**A.** 126%

**Q.** What about the EC50 of the same compound?
**A.** 254 nM

**Q.** For CC12CC(=O)N(c3c(F)cc(C#Cc4ccccc4)cc3F)C(=O)N1CCNC2=O (racemic) [Example 25, (9aRS)-7-[2,6-Difluoro-4-(2-phenylethynyl)phenyl]-9a-methyl-2,3,4,9-tetrahydropyrazino[1,2-c]pyrimidine-1,6,8-trione], which Emax is on record?
**A.** 105%

**Q.** And the EC50?
**A.** 83 nM
